From PMC3621900 (Nature Communications, 2013)

Tested on: nicotinic acetylcholine receptor (nAChR)
Assay: whole-cell patch clamp
Parameters: species or system Apis mellifera

`O=[N+]([O-])NC1=NCCN1Cc1ccc(Cl)nc1` [imidacloprid] was tested, and the IC50 was 295 nM.
